Results published in PubChem BioAssay (NCI).
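Briefly, cells in 96-well plates were exposed to five compound concentrations for 48 h, and endpoints were estimated by linear interpolation. GI50 is the concentration that inhibits growth by half. TGI: concentration producing complete growth inhibition.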

Legend:
Assay in all cases: growth of human tumour cells (NCI), 48 h
HL-60(TB) leukemia = test system: HL-60(TB) leukemia
SN12C renal = test system: SN12C renal
COLO 205 colon = test system: COLO 205 colon
CAKI-1 renal = test system: CAKI-1 renal
NCI/ADR-RES ovarian = test system: NCI/ADR-RES ovarian
HT29 colon = test system: HT29 colon
HCC-2998 colon = test system: HCC-2998 colon
UO-31 renal = test system: UO-31 renal
KM12 colon = test system: KM12 colon
HCT-116 colon = test system: HCT-116 colon
NCI-H23 lung = test system: NCI-H23 lung
K-562 leukemia = test system: K-562 leukemia
MDA-MB-231 breast = test system: MDA-MB-231 breast
UACC-257 melanoma = test system: UACC-257 melanoma
A498 renal = test system: A498 renal
NCI-H522 lung = test system: NCI-H522 lung
UACC-62 melanoma = test system: UACC-62 melanoma
NCI-H226 lung = test system: NCI-H226 lung
HCT-15 colon = test system: HCT-15 colon
NCI-H460 lung = test system: NCI-H460 lung
SK-MEL-2 melanoma = test system: SK-MEL-2 melanoma
SK-MEL-28 melanoma = test system: SK-MEL-28 melanoma
EKVX NSCLC = test system: EKVX NSCLC
SNB-19 CNS = test system: SNB-19 CNS
HOP-62 NSCLC = test system: HOP-62 NSCLC
HOP-92 NSCLC = test system: HOP-92 NSCLC
T-47D breast = test system: T-47D breast
SF-268 CNS = test system: SF-268 CNS
SK-MEL-5 melanoma = test system: SK-MEL-5 melanoma
OVCAR-4 ovarian = test system: OVCAR-4 ovarian
SK-OV-3 ovarian = test system: SK-OV-3 ovarian
OVCAR-5 ovarian = test system: OVCAR-5 ovarian
786-0 renal = test system: 786-0 renal
PC-3 prostate = test system: PC-3 prostate
A549 NSCLC = test system: A549 NSCLC
TK-10 renal = test system: TK-10 renal
IGROV1 ovarian = test system: IGROV1 ovarian
OVCAR-3 ovarian = test system: OVCAR-3 ovarian
HS 578T breast = test system: HS 578T breast
U251 CNS = test system: U251 CNS
OVCAR-8 ovarian = test system: OVCAR-8 ovarian
ACHN renal = test system: ACHN renal
MCF7 breast = test system: MCF7 breast
MOLT-4 leukemia = test system: MOLT-4 leukemia
CCRF-CEM leukemia = test system: CCRF-CEM leukemia
SW-620 colon = test system: SW-620 colon
BT-549 breast = test system: BT-549 breast
M14 melanoma = test system: M14 melanoma

Compound `COc1cc(/C=C/c2cc(/C=C/c3ccc(O)c(OC)c3)n(-c3c(C)cccc3C)c(=O)n2)ccc1O` has a GI50 (HL-60(TB) leukemia) of 271 nM, a TGI (HL-60(TB) leukemia) of 1110 nM and a GI50 (SN12C renal) of 1660 nM. The TGI (SN12C renal) was > 100000 nM, the GI50 (COLO 205 colon) was 2070 nM and the TGI (COLO 205 colon) was 4190 nM. For the same compound, the GI50 (CAKI-1 renal) was 859 nM, the TGI (CAKI-1 renal) was 14900 nM and the GI50 (NCI/ADR-RES ovarian) was 1420 nM. It also gave a TGI (NCI/ADR-RES ovarian) of 5770 nM, a GI50 (HT29 colon) of 2130 nM and a TGI (HT29 colon) of 4710 nM. The GI50 (HCC-2998 colon) was 2280 nM, the TGI (HCC-2998 colon) was 9150 nM and the GI50 (UO-31 renal) was 352 nM. The TGI (UO-31 renal) was 2530 nM, the GI50 (KM12 colon) was 470 nM and the TGI (KM12 colon) was 3630 nM. The GI50 (HCT-116 colon) was 695 nM, the TGI (HCT-116 colon) was 3380 nM and the GI50 (NCI-H23 lung) was 1250 nM. The TGI (NCI-H23 lung) was 3980 nM, the GI50 (K-562 leukemia) was 374 nM and the TGI (K-562 leukemia) was > 100000 nM. The GI50 (MDA-MB-231 breast) was 1760 nM, the TGI (MDA-MB-231 breast) was 9950 nM and the GI50 (UACC-257 melanoma) was 1620 nM. For the same compound, the TGI (UACC-257 melanoma) was 6540 nM, the GI50 (A498 renal) was 2400 nM and the TGI (A498 renal) was 6080 nM. The GI50 (NCI-H522 lung) was 264 nM, the TGI (NCI-H522 lung) was 1040 nM and the GI50 (UACC-62 melanoma) was 635 nM. For the same compound, the TGI (UACC-62 melanoma) was 3280 nM, the GI50 (NCI-H226 lung) was 2360 nM and the TGI (NCI-H226 lung) was 7590 nM. The GI50 (HCT-15 colon) was 442 nM, the TGI (HCT-15 colon) was 4610 nM and the GI50 (NCI-H460 lung) was 683 nM. It also gave a TGI (NCI-H460 lung) of 4370 nM, a GI50 (SK-MEL-2 melanoma) of 436 nM and a TGI (SK-MEL-2 melanoma) of 1730 nM. It also gave a GI50 (SK-MEL-28 melanoma) of 1160 nM, a TGI (SK-MEL-28 melanoma) of 5100 nM and a GI50 (EKVX NSCLC) of 1860 nM. It also gave a TGI (EKVX NSCLC) of 6730 nM, a GI50 (SNB-19 CNS) of 2380 nM and a TGI (SNB-19 CNS) of 9190 nM. It also gave a GI50 (HOP-62 NSCLC) of 1080 nM, a TGI (HOP-62 NSCLC) of 2760 nM and a GI50 (HOP-92 NSCLC) of 2070 nM. For the same compound, the TGI (HOP-92 NSCLC) was 5510 nM, the GI50 (T-47D breast) was 1340 nM and the TGI (T-47D breast) was 4250 nM. The GI50 (SF-268 CNS) was 1190 nM, the TGI (SF-268 CNS) was 11500 nM and the GI50 (SK-MEL-5 melanoma) was 559 nM. The TGI (SK-MEL-5 melanoma) was 1900 nM, the GI50 (OVCAR-4 ovarian) was 798 nM and the TGI (OVCAR-4 ovarian) was 8410 nM. It also gave a GI50 (SK-OV-3 ovarian) of 438 nM, a TGI (SK-OV-3 ovarian) of 3370 nM and a GI50 (OVCAR-5 ovarian) of 2650 nM. The TGI (OVCAR-5 ovarian) was 9590 nM, the GI50 (786-0 renal) was 958 nM and the TGI (786-0 renal) was 3410 nM. It also gave a GI50 (PC-3 prostate) of 1170 nM, a TGI (PC-3 prostate) of 6520 nM and a GI50 (A549 NSCLC) of 1180 nM. It also gave a TGI (A549 NSCLC) of 7600 nM, a GI50 (TK-10 renal) of 1140 nM and a TGI (TK-10 renal) of 4870 nM. It also gave a GI50 (IGROV1 ovarian) of 1240 nM, a TGI (IGROV1 ovarian) of 6870 nM and a GI50 (OVCAR-3 ovarian) of 1370 nM. The TGI (OVCAR-3 ovarian) was 6600 nM, the GI50 (HS 578T breast) was 817 nM and the TGI (HS 578T breast) was > 100000 nM. For the same compound, the GI50 (U251 CNS) was 635 nM, the TGI (U251 CNS) was 4080 nM and the GI50 (OVCAR-8 ovarian) was 1510 nM. It also gave a TGI (OVCAR-8 ovarian) of 8160 nM, a GI50 (ACHN renal) of 399 nM and a TGI (ACHN renal) of 10600 nM.
For `Cn1nc(/C=C\C(=O)N2CC(CCl)c3c2cc(N)c2ccccc32)cc1/C=C/C(=O)N1CC(CCl)c2c1cc(N)c1ccccc21` (configuration not stated), the TGI (CAKI-1 renal) was < 10 nM, the TGI (NCI/ADR-RES ovarian) was 295 nM and the TGI (MCF7 breast) was > 100000 nM. The TGI (KM12 colon) was > 100000 nM, the TGI (K-562 leukemia) was > 100000 nM and the TGI (MDA-MB-231 breast) was < 10 nM. The TGI (UACC-62 melanoma) was < 10 nM, the TGI (NCI-H226 lung) was < 10 nM and the TGI (NCI-H460 lung) was > 100000 nM. For the same compound, the TGI (EKVX NSCLC) was 96.5 nM, the TGI (MOLT-4 leukemia) was > 100000 nM and the TGI (SNB-19 CNS) was 591 nM. For the same compound, the TGI (HOP-62 NSCLC) was 41.1 nM, the TGI (CCRF-CEM leukemia) was < 10 nM and the TGI (T-47D breast) was > 100000 nM. The TGI (SW-620 colon) was > 100000 nM, the TGI (BT-549 breast) was < 10 nM and the TGI (OVCAR-4 ovarian) was > 100000 nM. The TGI (SK-OV-3 ovarian) was > 100000 nM, the TGI (OVCAR-5 ovarian) was < 10 nM and the TGI (PC-3 prostate) was 59.6 nM. For the same compound, the TGI (M14 melanoma) was < 10 nM and the TGI (ACHN renal) was > 100000 nM.
